These results are taken from patent US20090175905A1, “TRANSFECTION REAGENT AND METHOD FOR ENHANCING TRANSFECTION EFFICIENCY” (National Taiwan University of Science and Technology, priority 2008, published 2009).

One data set deals with B16F10. Put plainly: DNA-PEI transfection with trehalose, GFP expression percentage, B16F10. Type of data set: cell-based. To be noted: 20 mM trehalose. From the text: (§1) FIG. 6 presents the effects of disaccharides on the transfection efficiency of in vitro cultured CHO cells that are transfected with transfection reagents containing PEI and different disaccharides. The x-axis in FIG. 6 represents the concentrations of different disaccharide in the transfection reagent, and the y-axis represents the GFP expression percentage of the transfected CHO cells detected by a flow cytometer. The GFP expression percentage of the transfected CHO cells is used as an indicator of transfection efficiency. […] The effect of disaccharides in the transfection reagent on transfection efficiency is then analyzed. […] In other words, the cell transfection efficiency is enhanced.
(§2) FIGS. 7A and & 7B show the optimal trehalose concentrations for enhancing the transfection expression mediated by DNA-PEI complexes in different cell lines. The x-axis in FIGS. 7A and 7B […] represents the concentrations of trehalose in the transfection reagent, and the y-axis represents the GFP expression percentage of the cells as an indicator of transfection efficiency The transfection procedures in these experiments of different cell lines are identical to those described previously for CHO cells in experiment 5. […] Moreover, the extents of enhancement on the transfection efficiency depend on the cell lines. […]

The test system of another data set is COS-7 cells. Put plainly: DNA-PEI transfection with trehalose, GFP expression percentage, COS-7. The format is cell-based. The conditions noted are these: 180 mM trehalose.
Description: as §1, §2

The subject of another data set is lung tissues. Put plainly: In vivo transfection by tail vein injection of gWiz-luciferase plasmid with lipid-based vectors plus disaccharides, luciferase activity in lung. Set-up: species or system mouse. The conditions noted are these: for luminescent intensity in the lung tissue (RLU per mg of lung tissue protein): DOTAP liposomes, i.v. tail vein, 24 hour. On the procedure:
FIG. 4A presents the effects of disaccharides on the transgene expression after intravenous injection of DOTAP-based vectors with various disaccharides by way of mouse tail vein. Various concentrations of […] and […] are respectively incorporated into the transfection reagent containing the gWiz-luciferase plasmid and DOTAP liposomes. The transfection reagent is administered via intravenous injection through the tail vein of a 4-6 weeks old ICR (CD-1) […]. The […] is sacrificed 24 hour after the intravenous injection, and the activity of luciferase in the lung tissues of the […] is observed. The x-axis in FIG. 4A represents the disaccharide concentration in the tranfection reagent, and the y-axis in FIG. 4 represents the luminescent intensity, measured by a luminometer and expressed as relative light unit (RLU) per mg of lung tissue protein. The luminescent intensity is used as an indicator of transfection efficiency. […] Accordingly, cellobiose and trehalose can improve the efficiency of cell transfection in vivo, and the transfection efficiency increases as the concentration of the disaccharide increases. FIG. 4B presents the effects of disaccharides on the transgene expression after intravenous injection of different lipid-based vectors with various disaccharides by way of mouse tail vein. DOTAP, DOTAP/chol and LPD are respectively added as a vector into the tranfection reagent containing gWiz-luciferase plasmid. A concentration of 330 mM cellobiose or trehalsoe is incorporated into the transfection reagent. The transfection reagent is then intravenously injected into the animal for cell transfection. The x-axis in FIG. 4B represents the type of the lipid-based vector, and the y-axis in FIG. 4B represents the luminescent intensity, measured by a luminometer and expressed as relative light unit (RLU) per mg of lung tissue protein.

In data set [1] the test system is Chinese hamster ovary (CHO) cells. Put plainly: In vitro transfection of CHO cells with different lipid-based vectors plus disaccharides, GFP-positive percentage. The format is cell-based. To be noted: 120 mM disaccharide; DOTAP, DOTAP/Chol, DOTAP/DOPE, DC-Chol/DOPE or LPD vector. From the text:
FIGS. 3A and 3B present the effects of disaccharides on the transgene expression of cultured Chinese hamster ovary (CHO) cells subjected to an in vitro transfection of DNA with a transfection reagent containing different lipid-based vectors plus different disaccharides. The x-axis in FIGS. 3A and 3B represents the lipid composition, and the y-axis represents the GFP-positive percentage of the transfected CHO cells, which is used as an indicator for transfection efficiency. In the experiments shown in FIGS. 3A and 3B, DOTAP, DOTAP/Chol, DOTAP/DOPE, DC-Chol/DOPE or LPD applied as a vector is incorporated into a pEGFP-C1 plasmid-containing transfection reagent. Thereafter, 120 mM of various disaccharides is incorporated into the transfection reagent, and in vitro cell transfection is performed followed by detecting the cell percentage of GFP expression.

The test system of data set [2] is CHO cells. In words: In vitro transfection of CHO cells with DNA-PEI plus disaccharides, GFP by flow cytometer. To be noted: PEI to DNA charge ratio 9:1. The format is cell-based, Chinese hamster.
Description: In the following experiments, a polyethyleneimine (PEI)-based vector is used to perform cell transfection. Further, various disaccharides are incorporated into the transfection reagent containing DNA and the vector, and the effects of disaccharides on cell transfection are observed.
as §1
Background: In flow cytometry, cells or beads pass a laser one at a time.

The subject of data set [3] is CHO cells. Put plainly: MTT cellular viability of CHO cells transfected with lipid-based carriers plus disaccharides. The conditions noted are these: DOTAP, DOTAP/Chol, DOTAP/DOPE or LPD vector; nontransfected CHO cells = 100%.
Description: FIG. 5 presents the effects of disaccharides on the cellular cytotoxicity of the in vitro cultured CHO cells transfected with transfection reagents containing lipid-based carriers.
In a further data set the test system is 293 cells. In words: DNA-PEI transfection with trehalose, GFP expression percentage, 293. Type of data set: cell-based. The conditions noted are these: 180 mM trehalose.
Description: as §1, §2

Consider `OC[C@H]1O[C@H](O[C@H]2O[C@H](CO)[C@@H](O)[C@H](O)[C@H]2O)[C@H](O)[C@@H](O)[C@@H]1O` [trehalose], for which, in the data set with B16F10, the “enhancement of percentage of GFP positive cells” value is listed as about 42%. Moreover, the “enhancement of percentage of GFP expressed cells” value with COS-7 cells was 37%; with 293 cells, 32%. For the same compound, the “effect on transfection efficiency (luminescent intensity, lung)” value with lung tissues (330 mM disaccharide, DOTAP, DOTAP/Chol or LPD vector, i.v.) was “significant increase in transfection efficiency”. The “luminescent intensity in the lung tissue (RLU per mg of lung tissue protein)” value is “increase the luminescent intensity significantly” in the data set with lung tissues (180 mM disaccharide) and “increases noticeably” in the data set on lung tissues (330 mM disaccharide). In addition, in data set [1], the “effect on transfection efficiency (GFP-positive percentage)” value was “significantly enhances the transfection efficiency”. In the data set on CHO cells [2], the “effect on GFP expression percentage (transfection efficiency)” value is “significantly increases the GFP expression percentage”. Besides, the GFP expression percentage result with CHO cells [2] (180 mM trehalose) is on record as “about 20%”. Besides, the “GFP expression percentage relative to absence of disaccharides” value in the data set with CHO cells [2] (180 mM trehalose) is listed as “about one fold higher”. The “cellular viability analyzed by the MTT assay” value with CHO cells [3] is “improve the cellular viabilities”.
